From ChEMBL document CHEMBL1152110, “Tetraazaacenaphthene and tetraazaphenalene derivatives: A new class of hepatoprotectants: Part IV” (1995)

Legend:
Format in all cases: functional
Rattus norvegicus [1] = experiment: Hepatoprotective activity against thioacetamide-induced toxicity in rats at a dose of 6 mg/Kg dose (p.o. x 7 days) expressed as % protection afforded in […] (ALP) levels
Rattus norvegicus [2] = experiment: Hepatoprotective activity against thioacetamide-induced toxicity in rats at a dose of 6 mg/Kg dose (p.o. x 7 days), expressed as % protection afforded in glutamate pyruvate transaminase (GPT) levels
Rattus norvegicus [3] = experiment: Hepatoprotective activity against thioacetamide-induced toxicity in rats at a dose of 6 mg/Kg dose (p.o. x 7 days), expressed as % protection afforded in serum bilirubin levels
Rattus norvegicus [4] = experiment: Hepatoprotective activity against thioacetamide-induced toxicity in rats at a dose of 6 mg/Kg dose (p.o. x 7 days), expressed as % protection afforded in glutamate oxaloacetate transaminase (GOT) levels
Rattus norvegicus [5] = experiment: Hepatoprotective activity against thioacetamide-induced toxicity in rats at a dose of 6 mg/Kg dose (p.o. x 7 days), expressed as % protection afforded in […] (ALP) levels

With SILYMARIN the Protection (Rattus norvegicus [1]) was 47%, the Protection (Rattus norvegicus [2]) was 47% and the Protection (Rattus norvegicus [3]) was 61%. The Protection (Rattus norvegicus [4]) was 50%.

Compound `CCN1C(=O)C2C(=O)N(CC)C(=S)N3CCN(C1=S)C23` (stereo unspecified) has a Protection (Rattus norvegicus [1]) of 22%, a Protection (Rattus norvegicus [2]) of 34% and a Protection (Rattus norvegicus [3]) of 31%. It also gave a Protection (Rattus norvegicus [4]) of 20%.

`CCN1C(=N)C2C(=O)N(CC)C(=S)N3CCCN(C1=S)C23` (stereo unspecified) showed a Protection (Rattus norvegicus [1]) of 48%, a Protection (Rattus norvegicus [2]) of 50% and a Protection (Rattus norvegicus [3]) of 50%. It also gave a Protection (Rattus norvegicus [4]) of 40%.

For `CC/N=C(/S)N1CCn2c1c(C#N)c(=O)n(CC)c2=S`, the Protection (Rattus norvegicus [1]) was 56%, the Protection (Rattus norvegicus [2]) was 70% and the Protection (Rattus norvegicus [3]) was 60%. For the same compound, the Protection (Rattus norvegicus [4]) was 31%.

With `Cc1ccccc1N1C(=O)C2C(=O)N(c3ccccc3C)C(=O)N3CCN(C1=O)C23` (stereo unspecified) the Protection (Rattus norvegicus [1]) was 16%, the Protection (Rattus norvegicus [2]) was 15% and the Protection (Rattus norvegicus [3]) was 18%. It also gave a Protection (Rattus norvegicus [4]) of 18%.

With `CCO/C(O)=C(\C1=NCCCN1)c1nnc(N)s1` the Protection (Rattus norvegicus [1]) was 38%, the Protection (Rattus norvegicus [2]) was 50% and the Protection (Rattus norvegicus [3]) was 22%. For the same compound, the Protection (Rattus norvegicus [4]) was 26%.

Compound `O=C1C2C(=O)N(c3ccccc3)C(=S)N3CCN(C(=S)N1c1ccccc1)C23` (stereo unspecified) has a Protection (Rattus norvegicus [1]) of 20%, a Protection (Rattus norvegicus [2]) of 18% and a Protection (Rattus norvegicus [3]) of 25%. It also gave a Protection (Rattus norvegicus [4]) of 27%.

With `CCO/C(O)=C(\C1=NCCN1)c1nnc(N)s1` the Protection (Rattus norvegicus [2]) was 51%, the Protection (Rattus norvegicus [3]) was 53% and the Protection (Rattus norvegicus [4]) was 33%. For the same compound, the Protection (Rattus norvegicus [5]) was 19%.

Compound `CCN1C(=N)C2C(=O)N(CC)C(=S)N3CCN(C1=S)C23` (stereo unspecified) has a Protection (Rattus norvegicus [1]) of 17%, a Protection (Rattus norvegicus [2]) of 87% and a Protection (Rattus norvegicus [3]) of 57%. It also gave a Protection (Rattus norvegicus [4]) of 50%.
